Laboratory results: patent publication US6841537B1, “Combination therapy using nucleic acids and conventional drugs” (Protiva Biotherapeutics Inc., priority 1998, dated 2005)

Assays:
[1] = system: SK-OV-3 cells; assay: Cell cycle arrest by aphidicolin, propidium iodide staining and flow cytometry; format: cell-based, human; conditions: (+/−) culture
Experimental: (§1) SK-OV-3 or HeLa-luc cells were seeded at a density of 30,000 cells per well in a 24 well plate in growth media 24 hours prior to treatment with aphidicolin. Aphidicolin (Sigma) was reconstituted in phosphate buffered saline containing 0.5% DMSO. Cells were incubated with aphidicolin at a final concentration of 5 μg/mL in 1 mL of media per well for 16 hours prior to transfection. Transfection was accomplished by the addition of 0.5 μg of formulated DNA to each well.
The cell cycle status of cultures was determined by flow cytometry of permeabilized cells that were stained with propidium iodide. Prior to harvesting, media was aspirated and the cells were washed twice with 2 mL phosphate buffered saline (PBS). […] 5,000 cells were analyzed in the FL2 channel (λemission=585+/−21 nm) of a FACSort flow cytometer (Becton-Dickinson, San Jose, Calif.) equipped with an Ar- ion laser (λexcitation=488 nm)
In an initial study, the effectiveness of a non-lethal concentration of aphidicholin to arrest SK-OV-3 cells was determined. A sub-confluent asynchronous cell culture contained approx. 75%, 5% and 20% of cells in G1, S and M phase, respectively, as measured by staining with propidium iodide (PI) followed by flow cytometry (FIG. 1(A)). […]

[2] = system: SK-OV-3 cells; assay: Uptake of YOYO-1 labeled plasmid DNA lipoplexes by flow cytometry; format: cell-based, human; conditions: aphidicolin arrested vs control cells
Experimental: as §1, with “well. […]” for “well.”
Lipoplexes were prepared using YOYO-1 labeled DNA and incubated with cells. […] Fluorescence was measured in the FL1 channel (λemission=530+/−15 nm) of a FACSort flow cytometer (Becton-Dickinson, San Jose, Calif.) equipped with an Ar- ion laser ([…]). Data was collected from 10,000 cells and analyzed for fluorescence using CellQuest software.
In order to determine whether aphidicolin treatment affects cellular processes related to transgene expression, effects on DNA uptake and gene expression were studied. It has been shown previously that fluorescently labeled DNA can be formulated as lipoplexes and the uptake of lipoplexes can be measured by flow cytometry (see, Zabner, et al., J. Biol. Chem., 270:18997-19007 (1995); and Tseng, et al., Biotechnol. Bioeng., 50:548-554 (1996);). […] The rate of lipoplex uptake per cell was determined by flow cytometry. […]

[3] = system: HeLa-luc cells; assay: Effect of aphidicolin on constitutive CMV driven luciferase gene expression; format: cell-based, human; conditions: 0, 6 and 24 hours after arrest vs untreated control cells
Experimental: SK-OV-3 cells (human ovarian tumor cells, ATCC) were cultured in RPMI 1640 media (StemCell Technologies, Vancouver, B.C.) supplemented with 10% fetal bovine serum (Intergen). HeLa-luc cells were stably transfected with a luciferase reporter plasmid and cultured in Dulbecco's modified Eagle medium (StemCell Technologies, Vancouver, B.C.) supplemented with 10% fetal bovine serum and 400 μg/mL Geneticin (Gibco BRL). […]
(§2) Luciferase assays were performed using the Luciferase Assay System kit (Promega, Madison, Wis.) according to the manufacturer's protocol. […] A standard curve was determined by assaying 20 μL of serial dilutions of a 1 mg/mL luciferase standard (Boehringer Mannheim). […] Absorbance was monitored at 570 nm (Dynatech MR5000 plate reader) and protein content calculated using a standard curve of varying concentrations of BSA.
To determine the effect of aphidicolin-mediated cell cycle arrest on the transcriptional and translational machinery of the cell, a clonal HeLa cell line stably transfected with a CMV driven luciferase expression cassette (Song, Inex Pharmaceuticals, unpublished) was analyzed. […]

[4] = system: SK-OV-3 cells; assay: Lipid mediated transfection (luciferase activity) in aphidicolin treated cells; format: cell-based, human
Experimental: Lipoplexes were prepared as follows: All reagents were sterile and cooled to 4° C. prior to complex preparation. A solution containing 62 μM dioleoyldimethylammonium chloride:1,2-sn-dioleoylphosphatidylethanolamine (DODAC:DOPE) large unilamellar vesicles (LUVs) and a solution containing 10 μg/mL plasmid DNA were prepared in distilled water. The DNA was added to an equal volume of lipid dropwise, while vortexing. The solution was incubated on ice for 30 minutes prior to transfection. The resulting lipoplexes contained a final DNA concentration of 0.5 μg/100 μL and the cationic lipid:DNA (+:−) charge ratio was 1:1.
Plasmid containing a therapeutic gene was encapsulated as SPLP using the detergent dialysis method of INEX 351. […]
as §2
An initial experiment was performed to determine whether lipid mediated transfection was affected by the cell cycle status of SK-OV-3 cells in vitro. […] Luciferase activity was measured after 24 hrs of continuous exposure to lipoplexes. […]

[5] = system: MCA 207 tumor; assay: Combination therapy: OncoTCS then i.v. INEX 324 with pINEX-IL-12, tumor size; format: in vivo, C57 BL/6 mice; conditions: subtherapeutic dose (OncoTCS 0.5 mg/kg i.v.) before INEX 324 i.v. 100 μg DNA
Experimental: C57 BL/6 mice are seeded subcutaneously with MCA 207 tumor cells. Tumor seeding is performed by standard techniques. Mice were seeded subcutaneously on the hip flank with 100,000 MCA-207 fibrosarcoma tumor cells by sub-cutaneous injection on day zero.
On days 7-10, when tumors had developed to useable sizes, mice were injected i.v. via tail vein with approximately 0.5 mg/kg of OncoTCS (200 μL).
At 8, 16, 24, 30, 36, 42 or […] after OncoTCS treatment, the mice were injected i.v. via tail vein with INEX 324 (100 μg DNA pINEX-1L-12 with about 500 μg lipid all in about 200 μL total volume). Control mice received HBS.

[6] = system: MCA 207 tumor; assay: Combination therapy: OncoTCS then i.v. INEX 303 with pINEX-TK10 plus ganciclovir, tumor size; format: in vivo, C57 BL/6 mice; conditions: subtherapeutic pretreatment (OncoTCS 0.5 mg/kg i.v.) before INEX 303 pINEX-TK10 i.v. and ganciclovir i.p.
Experimental: C57 BL/6 mice are seeded subcutaneously with MCA 207 tumor cells. Tumor seeding is performed by standard techniques. Mice are seeded subcutaneously on the hip flank with 100,000 MCA-207 fibrosarcoma tumor cells by […] injection on day zero. The tumor cells are cultivated and prepared according to standard techniques using RPMI media with 10% Fetal Bovine Serum (see, for example, Current Protocols in Molecular Biology, Eds. Ausubel, F. M., et al.)
At 8, 16, 24, 30, 36, 42 or […] after OncoTCS treatment, the mice are injected i.v. via tail vein with INEX 303 containing pINEX-TK10 prepared as described herein (100 μg DNA with about 500 μg lipid all in about 200 μL total volume). Control mice receive HBS.
1 mg ganciclovir, which is in 200 μL PBS (approximately 50 mg/kg; commercially available from Hoffman La Roche) is administered by intraperitoneal injection 12 h and 24 h after SPLP administration.

[7] = system: B16 cells; assay: Luciferase activity in i.p. tumors after i.p. INEX 324 following OncoTCS; format: in vivo, C57 mice; conditions: OncoTCS 0.5 mg/kg i.v. 24 hours before INEX 324 i.p. 20 micrograms
Experimental: […] are seeded intraperitoneally with about 100,000 B16 cells. On day 7, 12 mice are injected i.v. via the tail vein with about 0.5 mg/kg of OncoTCS (vincristine sulfate encapsulated in sphingomyelin-containing TCS) in about 200 microliters. 12 control mice are not treated with OncoTCS. 24 hours later, all mice are injected i.p. with 20 micrograms of INEX 324 (TCS containing luciferase plasmid pINEX L018) in 500 microliters. Tumors are harvested 6, 12, 24 and 48 hours later, fast frozen, and stored at −70° C. until analyzed for luciferase activity. The frozen organs are then thawed at room temperature. 600 microliters of 1× cell culture lysis buffer (Promega) is added and the samples are homogenized in a FASTPREP homogenizer for 20 sec. at speed 4.0. The samples are centifuged for 2 min. at 10,000 g, and 20 microliters of the supernatant is assayed for luciferase activity.

SMILES	cells in the G2/M phase ([1]; 16 hrs after removal of aphidicolin block)	cells that had undergone mitotic division and progressed into the G1 phase ([1]; within 22 hrs after removal of aphidicolin block)	effect of cell cycle arrest on internalization of lipoplexes [2]	effect on level of luciferase gene expression [3]	decrease in luciferase gene expression ([4]; (+/+) culture arrested in G1, 24 hrs continuous exposure to DODAC:DOPE lipoplexes, vs asynchronous control)	luciferase expression vs control asynchronous culture ([4]; (+/−) culture, 24 hrs exposure to lipoplexes)	effect on therapeutic effect of pINEX-IL-12 in INEX 324 [5]	tumor growth vs HSV-TK/ganciclovir system alone [6]	transfection of tumors [7]
C[C@@]1(CO)[C@H](O)CC[C@@]2(C)[C@H]1CC[C@H]1C[C@@H]3C[C@@]12CC[C@]3(O)CO [aphidicolin, Aphidicolin]	approximately 85%	~45%	does not affect the internalization of lipoplexes	did not significantly affect	20 fold	did not differ significantly			
CC[C@]1(O)C[C@H]2CN(CCc3c([nH]c4ccccc34)[C@@](C(=O)OC)(c3cc4c(cc3OC)N(C=O)[C@H]3[C@@](O)(C(=O)OC)[C@H](OC(C)=O)[C@]5(CC)C=CCN6CC[C@]43[C@@H]65)C2)C1 [vincristine]							greatly enhances the therapeutic effect	inhibits growth of tumors and promotes tumor regression to a significantly greater degree	transfection of neoplastic sites
